Legend:
[1] = test system: IL-5; assay: Auricular tissue IL-5 ELISA, atopic dermatitis mice; assay type: in vivo, mouse; details: day 7, topical application, control 15, vehicle 32
Method: (§1) MC903 at 2 nM was applied to the right auricle of a 6-week-old male Balb/c (Japan SLC Inc.). Starting 8 h later, 5% norathyriol aqueous solution (1 mL of ethanol containing […] of norathyriol), betamethasone ointment, and delgocitinib ointment were applied to the auricle for 7 days. The measurement of auricular skin swelling was calculated by calipers. The day on which the first application of the compound was made was defined as day 0. Betamethasone and delgocitinib are currently in clinical use in atopic dermatitis and were used as control drugs in this example.
The mouse IL-5 ELISA kit (R&D) was used for this measurement.

[2] = test system: IL-6; assay: LPS-stimulated IL-6 secretion in B cells (ELISA); assay type: cell-based, mouse; details: 10 μM compound, 10 μg/mL LPS 2 days, control 9.46, LPS 246.13
Method: Mouse B cells were used to examine the inhibition of compounds on IL-6 secretion in LPS stimulation.
(§2) Mouse B cells were cultured in RPMI 1640 medium for 1 day. Then, 10 μM mangiferin 8a and 10 μM norathyriol were added to B cells, and after 1 day of culture, 10 μg/mL of LPS was added to each, followed by 2 days of culture.
(§3) Thus, the samples were divided into “control” with no treatment, “10 μg/mL LPS+10 μM mangiferin 8a” to which 10 μg/mL LPS and 10 μM mangiferin 8a were added, and “10 μg/mL LPS+10 μM norathyriol” to which 10 μg/mL LPS and 10 μM norathyriol were added and only 10 μg/mL LPS was added (“10 μg/L LPS”).
After these samples were incubated for 2 days, the culture supernatant was collected and IL-6 secretion was measured by enzyme-linked immunosorbent assay (ELISA). The mouse IL-6 ELISA kit (R&D) was used for this measurement.

[3] = test system: TNFα; assay: BAFF-induced TNFα secretion in B cells (ELISA); assay type: cell-based, mouse; details: DBA/1J spleen B cells; 10 μM compound, 100 ng/mL BAFF, 7 days; control 11.34, BAFF only 230.64
Method: Spleens were harvested from 6-week-old male DBA/1J mice and B cells were isolated. After isolation, the cells were cultured in RPMI 1640 medium for 1 day. Then, 10 μM mangiferin 8a and 10 μM norathyriol were added to B cells, and 100 ng/mL of BAFF was added to each 3 h later, and the cells were cultured for 7 days. After 7 days of culture, the culture supernatant was collected and TNFα secretion was measured by enzyme-linked immunosorbent assay (ELISA). This assay was performed using a mouse TNFα ELISA kit (R&D).

[4] = test system: TNFα; assay: LPS-stimulated TNFα secretion in B cells (ELISA); assay type: cell-based, mouse; details: 10 μM compound, 10 μg/mL LPS 2 days, control 15.13, LPS 296.31
Method: Mouse B cells were used to examine the inhibition of compounds on TNFα secretion in LPS stimulation.
as §2, §3
After these samples were incubated for 2 days, the culture supernatant was collected and TNFα secretion was measured by enzyme-linked immunosorbent assay (ELISA). The mouse TNFα ELISA kit (R&D) was used for this measurement.

[5] = test system: mouse macrophages; assay: LPS-stimulated macrophage proliferation (trypan blue); assay type: cell-based; details: 10 μM compound, 10 μg/mL LPS 3 days, control 10.65×10^4, LPS 19×10^4
Method: The inhibitory effect of the compound on macrophage cell proliferation was examined using mouse macrophages.
Macrophages collected from mice were cultured in RPMI 1640 medium for 1 day. Then, 10 μM mangiferin 8a and 10 μM norathyriol were added to macrophages, and after 1 day of culture, 10 μg/mL of lipopolysaccharide (LPS) was added to each for 3 days. After 3 days of incubation, the number of viable cells was determined by the trypan blue dye method. Note that LPS was used as an allergic inflammation inducer.
Referring to FIG. 49, the horizontal axis indicates treatment with each compound and the vertical axis indicates cell count (1×10^4 cells/mL). Only 0.5% DMSO in PBS, which was used to dissolve the reagent (compound), was added as control. The LPS group is referred to as the LPS group with 10 μg/mL LPS, the mangiferin 8a group is referred to as the mangiferin 8a group with LPS and mangiferin 8a, and the norathyriol group is referred to as the norathyriol group with LPS and norathyriol.

[6] = test system: Monocytes collected from mice; assay: LPS-induced M1 macrophage activation (CD80 flow cytometry); assay type: cell-based, mouse; details: 10 μM compound, 10 μg/mL LPS, 10 days; vs LPS-added group
Method: Monocytes collected from mice were cultured in RPMI 1640 medium for 1 day. Then, 10 μM mangiferin 8a and 10 μM norathyriol were added to Monocytes, and after 1 day of culture, 10 μg/mL of LPS was added, followed by 10 days of culture. After 10 days of culture, cells were stained with anti-CD11b and anti-F4/80 antibodies, markers of macrophages, and anti-CD80 antibody, marker of M1 macrophages, and CD80 (CD11b positive and F4/80 positive) expression was measured using BD LSRFortessa.

[7] = test system: Monocytes collected from mice; assay: LPS-induced macrophage activation (CD11b/F4/80 flow cytometry); assay type: cell-based, mouse; details: 10 μM compound, 10 μg/mL LPS, 10 days; control 6.38, LPS only 26.8
Method: Monocytes collected from mice were cultured in RPMI 1640 medium for 1 day. Then, 10 μM mangiferin 8a and 10 μM norathyriol were added to monocytes, and after 1 day of culture, 10 μg/mL of LPS was added, followed by 10 days of culture. After 10 days of culture, cells were stained with anti-CD11b and anti-F4/80 antibodies, markers of macrophages, and expression of CD11b and F4/80 was measured using BD LSRFortessa. Note that CD11b positive and F4/80 positive indicate activated macrophages.

[8] = test system: TSLP; assay: Auricular tissue TSLP ELISA, atopic dermatitis mice; assay type: in vivo, mouse; details: day 7, topical application, control 317, vehicle 1533
Method: as §1
The mouse TSLP ELISA kit (R&D) was used for this measurement.

O=c1c2cc(O)c(O)cc2oc2cc(O)cc(O)c12 [norathyriol, 1,3,6,7-tetrahydroxyxanthone]
IL-5 secretion [1]: 14 pg/mL
IL-6 secretion [2]: 56.13 pg/mL
TNFα secretion [3]: 45.07 pg/mL
TNFα secretion [4]: 64.13 pg/mL
number of viable cells (cell count) [5]: 7.5×10^4 cells/mL
CD80 expression (CD11b positive and F4/80 positive) [6]: markedly reduced
CD11b positive and F4/80 positive population (activated macrophages) [7]: 11.6%
TSLP secretion [8]: 1026 pg/mL
